Consider 18 molecules from patent US10214509B2, “Amino-substituted heterocyclic derivatives as sodium channel inhibitors” (ALMIRALL, S.A., priority 2015, dated 2019).

Series [1] has as its target voltage-gated sodium channel Nav1.7 (Homo sapiens (Human), UniProt Q15858). The series is described as follows: Nav1.7 screening assay, IonWorks Quattro automated patch-clamp electrophysiology. The series is classed as cell-based. To be noted: stable cell line expressing Nav1.7; holding potential −100 mV; compound incubation 5 minutes; IC50 fitted to percent block; read-out: Nav 1.7 IC50. How it is done:
(§1) Assay Procedure Nav1.7 and Nav1.5 Screening Assay
(§2) Stable cell lines expressing the full-length protein of the voltage-gated sodium channels Nav1.7 or Nav1.5, with or without one beta-1, beta-2, beta-3, or beta-4 subunit, are created by transfected CHO cells or HEK293 cells, or any other suitable cell line, with a vector construct containing the complete open reading frame under a suitable promoter, as well known in the art.
(§3) Electrophysiological studies are performed with an IonWorks Quattro (Molecular Devices Corp.) automated patch-clamp electrophysiology platform as described by (Schroeder K et al. Journal of Biomolecular Screening 2003, 8 (1), 50-64). Buffers for the experiments have the following composition (mM): Internal solution; K-gluconate 100, KCl 40, MgCl2 3.2, HEPES 5, EGTA 3, pH 7.3. To this amphotericin B is added to final concentration of 0.1 mg/ml to generate access solution. External solution; Dulbecco's Phosphate buffered saline (D-PBS) NaCl 137.93, KCl 2.67, KH2PO4 1.47, Na2HPO4 8.06, CaCl2 0.90, MgCl2 0.49. Prior to the experiment the cells expressing the voltage-gated ion channel of interest are detached from the tissue culture flasks, centrifuged and resuspended in D-PBS. Compounds are prepared and serially diluted in DMSO and finally diluted 1:100 in D-PBS. Cells are exposed to compounds through the pipetting system integrated into the platform and the voltage-gated ion channel of interest is activated with specific voltage stimulation protocols. The following voltage stimulation protocol is used for testing compounds against the voltage-gated sodium channel Nav1.7; from a holding potential of −100 mV a train of eight 60 ms depolarising steps to −20 mV at a frequency of 14 Hz are employed followed by a further step to −20 mV for 2000 ms. After which the voltage is returned to −100 mV for 10 ms before another voltage step to −20 mV for 60 ms is applied. The following voltage stimulation protocol is used for testing compounds against the voltage-gated sodium channel Nav1.5; from a holding potential of −120 mV a train of twenty-six 120 ms depolarising steps to −20 mV at a frequency of 5 Hz are employed. Recordings are made before and after compound addition with the compound incubation time being 5 minutes.
(§4) Percent block was calculated for each concentration in duplicate for peak 1 and peak 10 and peak 1 and 25 for Nav 1.7 and Nav 1.5 respectively in order to assess compound activity at close and inactivated states and IC50 curves were fitted to percent block as a function of concentration.
(The patch-clamp technique gives a direct electrical read-out from membranes.)

Series [2] addresses voltage-gated sodium channel Nav1.5 (Homo sapiens (Human), UniProt Q14524). The series is described as follows: Nav1.5 screening assay, IonWorks Quattro automated patch-clamp electrophysiology. To be noted: stable cell line expressing Nav1.5; holding potential −120 mV; compound incubation 5 minutes; IC50 fitted to percent block; read-out: Nav 1.5 IC50. The series is classed as cell-based. The procedure:
as §1, §2, §3, §4

As usually defined, the IC50 is the point on the concentration scale where inhibition reaches its midpoint.

Chain of voltage-gated sodium channel Nav1.5 (Q14524 whole entry): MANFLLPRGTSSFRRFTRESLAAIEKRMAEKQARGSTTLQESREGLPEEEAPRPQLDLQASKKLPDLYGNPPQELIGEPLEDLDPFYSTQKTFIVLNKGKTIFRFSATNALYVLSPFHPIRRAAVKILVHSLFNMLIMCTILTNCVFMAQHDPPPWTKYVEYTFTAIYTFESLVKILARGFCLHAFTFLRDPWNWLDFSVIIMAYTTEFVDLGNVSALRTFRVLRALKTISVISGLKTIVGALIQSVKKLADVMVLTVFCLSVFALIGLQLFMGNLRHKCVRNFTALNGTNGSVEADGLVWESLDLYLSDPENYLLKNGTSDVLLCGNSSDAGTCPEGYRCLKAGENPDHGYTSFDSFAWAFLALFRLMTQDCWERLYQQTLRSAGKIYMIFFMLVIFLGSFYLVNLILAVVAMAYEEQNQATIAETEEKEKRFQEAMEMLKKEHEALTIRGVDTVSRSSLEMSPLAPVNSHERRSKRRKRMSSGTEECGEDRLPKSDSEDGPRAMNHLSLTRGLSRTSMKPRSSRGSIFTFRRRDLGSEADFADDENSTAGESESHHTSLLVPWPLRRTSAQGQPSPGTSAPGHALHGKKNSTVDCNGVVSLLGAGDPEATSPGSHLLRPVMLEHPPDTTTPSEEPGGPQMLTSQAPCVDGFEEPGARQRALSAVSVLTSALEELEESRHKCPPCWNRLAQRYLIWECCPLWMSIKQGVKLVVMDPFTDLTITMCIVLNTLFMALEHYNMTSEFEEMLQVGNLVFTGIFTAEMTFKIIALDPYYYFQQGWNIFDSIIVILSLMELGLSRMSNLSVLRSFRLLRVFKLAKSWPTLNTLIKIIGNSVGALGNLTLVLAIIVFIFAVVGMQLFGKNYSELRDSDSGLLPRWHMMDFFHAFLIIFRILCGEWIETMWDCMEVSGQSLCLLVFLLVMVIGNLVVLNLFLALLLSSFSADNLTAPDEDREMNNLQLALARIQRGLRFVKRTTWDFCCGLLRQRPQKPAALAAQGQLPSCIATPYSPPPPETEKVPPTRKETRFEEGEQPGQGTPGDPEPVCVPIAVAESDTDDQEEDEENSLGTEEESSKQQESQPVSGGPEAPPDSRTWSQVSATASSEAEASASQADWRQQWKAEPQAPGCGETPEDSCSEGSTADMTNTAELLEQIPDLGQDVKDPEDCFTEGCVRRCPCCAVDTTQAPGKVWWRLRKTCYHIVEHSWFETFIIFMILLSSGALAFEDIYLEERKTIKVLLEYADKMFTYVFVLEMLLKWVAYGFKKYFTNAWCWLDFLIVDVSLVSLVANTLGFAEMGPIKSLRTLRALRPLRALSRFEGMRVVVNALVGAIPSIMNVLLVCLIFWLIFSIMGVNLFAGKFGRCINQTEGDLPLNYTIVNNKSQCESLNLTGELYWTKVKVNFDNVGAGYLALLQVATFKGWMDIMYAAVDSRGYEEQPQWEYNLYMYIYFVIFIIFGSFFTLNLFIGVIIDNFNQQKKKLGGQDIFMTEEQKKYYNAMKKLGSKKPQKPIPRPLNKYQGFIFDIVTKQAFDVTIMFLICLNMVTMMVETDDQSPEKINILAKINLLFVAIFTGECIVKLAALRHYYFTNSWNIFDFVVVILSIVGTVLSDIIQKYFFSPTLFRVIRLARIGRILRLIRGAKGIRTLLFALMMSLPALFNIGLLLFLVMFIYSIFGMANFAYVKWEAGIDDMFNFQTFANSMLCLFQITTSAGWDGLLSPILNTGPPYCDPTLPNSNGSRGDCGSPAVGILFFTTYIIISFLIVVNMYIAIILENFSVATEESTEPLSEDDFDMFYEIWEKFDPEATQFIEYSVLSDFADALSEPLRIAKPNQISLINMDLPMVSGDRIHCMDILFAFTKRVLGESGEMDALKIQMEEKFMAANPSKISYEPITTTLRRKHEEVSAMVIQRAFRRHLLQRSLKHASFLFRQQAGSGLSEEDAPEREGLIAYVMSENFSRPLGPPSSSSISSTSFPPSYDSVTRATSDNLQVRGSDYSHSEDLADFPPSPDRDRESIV
Chain of voltage-gated sodium channel Nav1.7 (Q15858 whole entry): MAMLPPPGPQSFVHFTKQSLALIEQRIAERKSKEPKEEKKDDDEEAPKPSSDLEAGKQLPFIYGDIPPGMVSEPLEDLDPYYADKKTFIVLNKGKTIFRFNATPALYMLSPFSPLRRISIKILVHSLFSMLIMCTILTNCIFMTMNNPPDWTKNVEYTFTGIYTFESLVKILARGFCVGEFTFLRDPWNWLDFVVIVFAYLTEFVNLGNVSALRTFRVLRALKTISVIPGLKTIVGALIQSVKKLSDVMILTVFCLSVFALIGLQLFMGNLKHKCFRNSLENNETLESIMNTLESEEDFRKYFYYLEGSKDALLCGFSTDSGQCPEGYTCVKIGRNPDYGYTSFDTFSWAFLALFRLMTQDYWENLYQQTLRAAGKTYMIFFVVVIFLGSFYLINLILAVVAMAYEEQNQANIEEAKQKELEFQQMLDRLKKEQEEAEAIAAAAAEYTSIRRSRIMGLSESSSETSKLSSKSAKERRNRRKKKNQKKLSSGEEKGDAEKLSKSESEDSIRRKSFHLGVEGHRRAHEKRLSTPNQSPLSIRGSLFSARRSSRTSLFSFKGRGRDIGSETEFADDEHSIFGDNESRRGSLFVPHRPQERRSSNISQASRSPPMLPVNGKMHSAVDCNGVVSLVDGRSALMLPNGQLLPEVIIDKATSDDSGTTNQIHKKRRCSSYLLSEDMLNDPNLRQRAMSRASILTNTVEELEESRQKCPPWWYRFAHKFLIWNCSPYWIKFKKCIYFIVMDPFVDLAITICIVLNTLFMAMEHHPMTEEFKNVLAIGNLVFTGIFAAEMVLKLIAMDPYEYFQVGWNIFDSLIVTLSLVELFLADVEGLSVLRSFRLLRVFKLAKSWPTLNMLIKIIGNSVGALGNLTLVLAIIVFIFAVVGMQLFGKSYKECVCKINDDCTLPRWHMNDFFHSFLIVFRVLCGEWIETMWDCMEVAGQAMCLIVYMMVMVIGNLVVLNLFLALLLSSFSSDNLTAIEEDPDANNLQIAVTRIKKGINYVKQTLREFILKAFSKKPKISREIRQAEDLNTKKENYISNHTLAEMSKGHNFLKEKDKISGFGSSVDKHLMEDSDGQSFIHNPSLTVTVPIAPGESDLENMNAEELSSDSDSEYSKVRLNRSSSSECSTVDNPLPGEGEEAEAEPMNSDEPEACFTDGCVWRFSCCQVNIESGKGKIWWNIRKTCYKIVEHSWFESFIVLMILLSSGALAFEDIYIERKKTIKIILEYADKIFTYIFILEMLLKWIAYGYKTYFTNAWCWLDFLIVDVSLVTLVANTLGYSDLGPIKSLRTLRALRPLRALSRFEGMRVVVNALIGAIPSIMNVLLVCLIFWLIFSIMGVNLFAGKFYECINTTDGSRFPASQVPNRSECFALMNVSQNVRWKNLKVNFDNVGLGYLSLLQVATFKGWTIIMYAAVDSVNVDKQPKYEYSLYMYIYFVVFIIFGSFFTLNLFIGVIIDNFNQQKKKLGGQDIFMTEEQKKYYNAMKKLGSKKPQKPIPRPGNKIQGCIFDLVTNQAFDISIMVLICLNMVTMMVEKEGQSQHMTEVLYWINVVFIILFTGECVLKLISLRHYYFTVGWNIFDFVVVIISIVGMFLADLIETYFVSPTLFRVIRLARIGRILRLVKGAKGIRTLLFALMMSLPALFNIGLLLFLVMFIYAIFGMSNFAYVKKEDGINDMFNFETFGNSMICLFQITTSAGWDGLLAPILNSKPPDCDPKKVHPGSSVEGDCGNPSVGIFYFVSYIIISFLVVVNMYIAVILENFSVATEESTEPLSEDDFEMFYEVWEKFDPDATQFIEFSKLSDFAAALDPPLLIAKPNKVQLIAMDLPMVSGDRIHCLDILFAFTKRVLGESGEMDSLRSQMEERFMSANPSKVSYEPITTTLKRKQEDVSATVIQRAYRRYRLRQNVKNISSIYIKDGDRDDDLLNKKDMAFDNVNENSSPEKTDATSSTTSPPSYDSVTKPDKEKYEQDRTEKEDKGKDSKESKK

For “5-Amino-1-(2-(2-methoxyethoxy)phenyl)-3-methyl-N-(2-methyl-4-(trifluoromethyl)phenyl)-1H-pyrazole-4-carboxamide [Example 115]”, the IC50 was 700 nM in series [1] and over 33000 nM in series [2].

`COc1ccccc1-n1ncc(C(=O)Nc2ccc(Cl)cc2)c1N` [Example 1, 5-Amino-N-(4-chlorophenyl)-1-(2-methoxyphenyl)-1H-pyrazole-4-carboxamide]: the IC50 in series [1] turned out to be 700 nM; in series [2], 21000 nM.

As to `Cc1ccccc1-n1ncc(C(=O)Nc2ccc(Cl)cc2F)c1N` [Example 7, 5-Amino-N-(4-chloro-2-fluoro-phenyl)-1-(o-tolyl)-1H-pyrazole-4-carboxamide], the 50% inhibitory concentration (IC50) is 300 nM in series [1] and over 33000 nM in series [2].

Consider `COCCOc1ccccc1-n1nc(C)c(C(=O)Nc2ccc(C(F)(F)F)cc2F)c1N` [Example 38, 5-Amino-N-(2-fluoro-4-(trifluoromethyl)phenyl)-1-(2-(2-methoxyethoxy)phenyl)-3-methyl-1H-pyrazole-4-carboxamide], for which the figures for the IC50 in series [1] and in series [2] were 700 nM and over 33000 nM, respectively.

With `Cc1c(F)cccc1-n1ncc(C(=O)Nc2ccc(OC(F)(F)F)cn2)c1N` [Example 55, 5-Amino-1-(3-fluoro-2-methylphenyl)-N-(5-(trifluoromethoxy)pyridin-2-yl)-1H-pyrazole-4-carboxamide], the IC50 in series [1] is 500 nM; in series [2], over 33000 nM.

With `Cc1c(F)cccc1-n1ncc(C(=O)N2CCc3cc(Cl)ccc32)c1N` [Example 57, (5-Amino-1-(3-fluoro-2-methylphenyl)-1H-pyrazol-4-yl)(5-chloroindolin-1-yl)methanone], the values for the IC50 in series [1] and in series [2] were 800 nM and over 33000 nM, respectively.

On to `COc1ccccc1-n1ncc(C(=O)N2CCc3cc(Cl)ccc32)c1N` [Example 61, (5-Amino-1-(2-methoxyphenyl)-1H-pyrazol-4-yl)(5-chloroindolin-1-yl)methanone], for which the figures for the IC50 in series [1] and in series [2] were 900 nM and 28000 nM, respectively.

As to `Cc1c(F)cccc1-n1nnc(C(=O)Nc2ccc(Cl)cn2)c1N` [Example 75, 5-Amino-N-(5-chloropyridin-2-yl)-1-(3-fluoro-2-methylphenyl)-1H-1,2,3-triazole-4-carboxamide], the IC50 in series [1] was 800 nM; in series [2], over 33000 nM.

For the molecule `CCc1nn(-c2ccccc2OC)c(N)c1C(=O)Nc1ccc(C(F)(F)F)cn1` [Example 114, 5-Amino-3-ethyl-1-(2-methoxyphenyl)-N-(5-(trifluoromethyl)pyridin-2-yl)-1H-pyrazole-4-carboxamide], the IC50 in series [1] is 400 nM; in series [2], over 33000 nM.

With `Cc1nn(-c2cccc(F)c2C)c(N)c1C(=O)Nc1ccc(Cl)cn1` [Example 137, 5-Amino-N-(5-chloro-2-pyridyl)-1-(3-fluoro-2-methylphenyl)-3-methyl-pyrazole-4-carboxamide], the IC50 in series [1] was 600 nM; in series [2] it was over 33000 nM.

On to `CCc1ccccc1-n1ncc(C(=O)Nc2ccc(OCC(F)(F)F)cn2)c1N` [Example 140, 5-Amino-1-(2-ethylphenyl)-N-(5-(2,2,2-trifluoroethoxy)pyridin-2-yl)-1H-pyrazole-4-carboxamide], for which the IC50 was 1000 nM in series [1] and over 33000 nM in series [2].

With `CCc1nn(-c2cccc(F)c2C)c(N)c1C(=O)Nc1ccc(C(F)(F)F)cn1` [Example 143, 5-Amino-3-ethyl-1-(3-fluoro-2-methylphenyl)-N-[5-trifluoromethyl-2-pyridyl]pyrazole-4-carboxamide], the IC50 was determined as 300 nM in series [1] and 10000 nM in series [2].

With `Cc1nn(-c2ccccc2F)c(N)c1C(=O)Nc1ccc(C(F)(F)F)cn1` [Example 153, 5-Amino-1-(2-fluorophenyl)-3-methyl-N-(5-(trifluoromethyl)pyridin-2-yl)-1H-pyrazole-4-carboxamide], the IC50 in series [1] is 400 nM; in series [2] it was over 33000 nM.

For the molecule `Nc1c(C(=O)Nc2ccc(Cl)cn2)cnn1-c1ccccc1-c1cccnc1` [Example 196, 5-Amino-N-(5-chloropyridin-2-yl)-1-(2-(pyridin-3-yl)phenyl)-1H-pyrazole-4-carboxamide], the results for the IC50 in series [1] and in series [2] were 700 nM and 17000 nM, respectively.

Regarding `COc1cc(-c2ccccc2-n2ncc(C(=O)Nc3ccc(Cl)cn3)c2N)ccn1` [Example 197, 5-Amino-N-(5-chloropyridin-2-yl)-1-(2-(2-methoxypyridin-4-yl)phenyl)-1H-pyrazole-4-carboxamide], the IC50 in series [1] was 1000 nM; in series [2] it was over 33000 nM.

For the molecule `Nc1c(C(=O)Nc2ccc(C(F)(F)F)cn2)cnn1-c1ccccc1O` [Example 208, 5-Amino-1-(2-hydroxyphenyl)-N-(5-(trifluoromethyl)pyridin-2-yl)-1H-pyrazole-4-carboxamide], the half-maximal inhibitory concentration (IC50) in series [1] was 300 nM; in series [2], over 33000 nM.

Turning to `Cc1c(F)cccc1-n1cnc(C(=O)Nc2ccc(C(F)(F)F)cn2)c1N` [Example 251, 5-Amino-1-(3-fluoro-2-methylphenyl)-N-(5-(trifluoromethyl)pyridin-2-yl)-1H-imidazole-4-carboxamide], in series [1], the IC50 worked out at 200 nM.

For `COc1ccccc1-n1cnc(C(=O)Nc2ccc(Cl)cc2)c1N` [Example 254, 5-Amino-N-(4-chlorophenyl)-1-(2-methoxyphenyl)-1H-imidazole-4-carboxamide], the figures for the IC50 in series [1] and in series [2] were 1900 nM and over 33000 nM, respectively.
